Assay results as given in ChEMBL document CHEMBL1201862, “PubChem BioAssay data set” (2004).
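96-well plates; 48 h exposure; 5 concentrations. Endpoints by linear interpolation between flanking doses. Not reached: highest tested concentration assigned. Abbreviation: GI50, concentration required for 50% inhibition of growth.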 The source made the active and inactive calls. Rule as the data show it: active = GI50 up to about 1.1 µM and inactive = higher.

Legend:
Assay in all cases: DTP human tumour cell line panel, 48 h
[1] = system: KM12
[2] = system: UACC-257
[3] = system: SF-539
[4] = system: MDA-MB-435
[5] = system: NCI-H522
[6] = system: ACHN
[7] = system: HL-60
[8] = system: CCRF-CEM
[9] = system: EKVX
[10] = system: PC-3
[11] = system: K562
[12] = system: UACC-62
[13] = system: SF-268
[14] = system: MDA-N
[15] = system: SW-620
[16] = system: NCI-H23
[17] = system: SK-OV-3
[18] = system: SK-MEL-5
[19] = system: SR
[20] = system: RPMI-8226
[21] = system: SNB-75
[22] = system: OVCAR-8
[23] = system: 786-0
[24] = system: BT-549
[25] = system: MCF7
[26] = system: SF-295
[27] = system: LOX IMVI
[28] = system: HOP-92
[29] = system: MDA-MB-231
[30] = system: HCT-116
[31] = system: SK-MEL-2
[32] = system: UO-31
[33] = system: SN12C
[34] = system: NCI-H226
[35] = system: SK-MEL-28
[36] = system: HT-29
[37] = system: HCT-15
[38] = system: HCC 2998
[39] = system: NCI-H460
[40] = system: OVCAR-3
[41] = system: MOLT-4
[42] = system: CAKI-1
[43] = system: A498
[44] = system: IGROV-1
[45] = system: DU-145
[46] = system: A549
[47] = system: M14
[48] = system: OVCAR-5
[49] = system: Malme-3M
[50] = system: T47D
[51] = system: TK-10
[52] = system: NCI/ADR-RES
[53] = system: HOP-62
[54] = system: SNB-19
[55] = system: RXF 393
[56] = system: Hs-578T
[57] = system: U-251
[58] = system: COLO 205
[59] = system: OVCAR-4

Structure (SMILES): CC(C)OP(=O)(OC(C)C)/C(C#N)=C/c1ccco1
- GI50 [1]: > 100 µM (inactive)
- GI50 [2]: > 100 µM (inactive)
- GI50 [3]: > 100 µM (inactive)
- GI50 [4]: > 100 µM (inactive)
- GI50 [5]: > 100 µM (inactive)
- GI50 [6]: > 100 µM (inactive)
- GI50 [7]: > 100 µM (inactive)
- GI50 [8]: > 100 µM (inactive)
- GI50 [9]: > 100 µM (inactive)
- GI50 [10]: > 100 µM (inactive)
- GI50 [11]: > 100 µM (inactive)
- GI50 [12]: > 100 µM (inactive)
- GI50 [13]: > 100 µM (inactive)
- GI50 [14]: > 100 µM (inactive)
- GI50 [15]: > 100 µM (inactive)
- GI50 [16]: > 100 µM (inactive)
- GI50 [17]: > 100 µM (inactive)
- GI50 [18]: > 100 µM (inactive)
- GI50 [19]: > 100 µM (inactive)
- GI50 [20]: > 100 µM (inactive)
- GI50 [21]: > 100 µM (inactive)
- GI50 [22]: > 100 µM (inactive)
- GI50 [23]: > 100 µM (inactive)
- GI50 [24]: > 100 µM (inactive)
- GI50 [25]: > 100 µM (inactive)
- GI50 [26]: > 100 µM (inactive)
- GI50 [27]: > 100 µM (inactive)
- GI50 [28]: > 100 µM (inactive)
- GI50 [29]: > 100 µM (inactive)
- GI50 [30]: > 100 µM (inactive)
- GI50 [31]: > 100 µM (inactive)
- GI50 [32]: 5.19 µM (inactive)
- GI50 [33]: > 100 µM (inactive)
- GI50 [34]: > 100 µM (inactive)
- GI50 [35]: > 100 µM (inactive)
- GI50 [36]: > 100 µM (inactive)
- GI50 [37]: > 100 µM
- GI50 [38]: > 100 µM (inactive)
- GI50 [39]: > 100 µM (inactive)
- GI50 [40]: > 100 µM (inactive)
- GI50 [41]: > 100 µM (inactive)
- GI50 [42]: > 100 µM (inactive)
- GI50 [43]: > 100 µM (inactive)
- GI50 [44]: > 100 µM (inactive)
- GI50 [45]: > 100 µM (inactive)
- GI50 [46]: > 100 µM (inactive)
- GI50 [47]: > 100 µM (inactive)
- GI50 [48]: > 100 µM (inactive)
- GI50 [49]: > 100 µM (inactive)
- GI50 [50]: > 100 µM (inactive)
- GI50 [51]: > 100 µM (inactive)
- GI50 [52]: > 100 µM (inactive)
- GI50 [53]: > 100 µM (inactive)
- GI50 [54]: > 100 µM (inactive)
- GI50 [55]: > 100 µM (inactive)
- GI50 [56]: > 100 µM (inactive)
- GI50 [57]: > 100 µM (inactive)
- GI50 [58]: > 100 µM (inactive)
- GI50 [59]: > 100 µM (inactive)

Structure (SMILES): COc1cc([C@@H]2c3cc4c(cc3[C@H](OC3OC5COC(C(C)C)OC5C(O)C3O)C3COC(=O)[C@@H]32)OCO4)cc(OC)c1OC (stereo partly drawn)
- GI50 [1]: 3.61 µM (inactive)
- GI50 [2]: 5.01 µM (inactive)
- GI50 [3]: 3.6 µM (inactive)
- GI50 [4]: 4.37 µM (inactive)
- GI50 [5]: 3.24 µM (inactive)
- GI50 [6]: 4.79 µM (inactive)
- GI50 [7]: 3.85 µM (inactive)
- GI50 [8]: 3.49 µM (inactive)
- GI50 [9]: 10.2 µM (inactive)
- GI50 [10]: 4.89 µM (inactive)
- GI50 [11]: 3.19 µM (inactive)
- GI50 [12]: 4.7 µM (inactive)
- GI50 [13]: 5.81 µM (inactive)
- GI50 [14]: 2.18 µM (inactive)
- GI50 [15]: 4.48 µM (inactive)
- GI50 [16]: 4.55 µM (inactive)
- GI50 [17]: 6.32 µM (inactive)
- GI50 [18]: 5.55 µM (inactive)
- GI50 [19]: 2.11 µM (inactive)
- GI50 [20]: 5.71 µM (inactive)
- GI50 [21]: 11.6 µM (inactive)
- GI50 [22]: 4.13 µM (inactive)
- GI50 [23]: 2.58 µM (inactive)
- GI50 [24]: 5.52 µM (inactive)
- GI50 [25]: 3.38 µM (inactive)
- GI50 [26]: 3.47 µM (inactive)
- GI50 [27]: 3.01 µM (inactive)
- GI50 [28]: 6.85 µM (inactive)
- GI50 [29]: 5.77 µM (inactive)
- GI50 [30]: 2.83 µM (inactive)
- GI50 [31]: 8.36 µM (inactive)
- GI50 [32]: 11.1 µM (inactive)
- GI50 [33]: 19.5 µM (inactive)
- GI50 [34]: 2.96 µM (inactive)
- GI50 [35]: > 100 µM (inactive)
- GI50 [36]: 2.54 µM (inactive)
- GI50 [37]: 4.49 µM
- GI50 [38]: 5.16 µM (inactive)
- GI50 [39]: 2.34 µM (inactive)
- GI50 [40]: 2.62 µM (inactive)
- GI50 [41]: 4.84 µM (inactive)
- GI50 [42]: 4.15 µM (inactive)
- GI50 [43]: 2.89 µM (inactive)
- GI50 [44]: 4.17 µM (inactive)
- GI50 [45]: 11.7 µM (inactive)
- GI50 [46]: 3.96 µM (inactive)
- GI50 [47]: 5.24 µM (inactive)
- GI50 [48]: 10.3 µM (inactive)
- GI50 [49]: 4.57 µM (inactive)
- GI50 [50]: 12.7 µM (inactive)
- GI50 [51]: 32 µM (inactive)
- GI50 [52]: 3.19 µM (inactive)
- GI50 [53]: 7.24 µM (inactive)
- GI50 [54]: 6.19 µM (inactive)
- GI50 [55]: 2.3 µM (inactive)
- GI50 [56]: 3.17 µM (inactive)
- GI50 [57]: 3.93 µM (inactive)
- GI50 [58]: 4.59 µM (inactive)
- GI50 [59]: 16.6 µM (inactive)
